{"source": "patent US20100130457A1", "about": "“Phenothiazine Derivatives for Treatment of Asthma” (Immune Control, Inc., priority 2008, published 2010)", "key": {"Nav1.5": {"biological_target": "Nav1.5 (Homo sapiens, UniProt Q14524)", "sequence (Q14524 whole entry)": "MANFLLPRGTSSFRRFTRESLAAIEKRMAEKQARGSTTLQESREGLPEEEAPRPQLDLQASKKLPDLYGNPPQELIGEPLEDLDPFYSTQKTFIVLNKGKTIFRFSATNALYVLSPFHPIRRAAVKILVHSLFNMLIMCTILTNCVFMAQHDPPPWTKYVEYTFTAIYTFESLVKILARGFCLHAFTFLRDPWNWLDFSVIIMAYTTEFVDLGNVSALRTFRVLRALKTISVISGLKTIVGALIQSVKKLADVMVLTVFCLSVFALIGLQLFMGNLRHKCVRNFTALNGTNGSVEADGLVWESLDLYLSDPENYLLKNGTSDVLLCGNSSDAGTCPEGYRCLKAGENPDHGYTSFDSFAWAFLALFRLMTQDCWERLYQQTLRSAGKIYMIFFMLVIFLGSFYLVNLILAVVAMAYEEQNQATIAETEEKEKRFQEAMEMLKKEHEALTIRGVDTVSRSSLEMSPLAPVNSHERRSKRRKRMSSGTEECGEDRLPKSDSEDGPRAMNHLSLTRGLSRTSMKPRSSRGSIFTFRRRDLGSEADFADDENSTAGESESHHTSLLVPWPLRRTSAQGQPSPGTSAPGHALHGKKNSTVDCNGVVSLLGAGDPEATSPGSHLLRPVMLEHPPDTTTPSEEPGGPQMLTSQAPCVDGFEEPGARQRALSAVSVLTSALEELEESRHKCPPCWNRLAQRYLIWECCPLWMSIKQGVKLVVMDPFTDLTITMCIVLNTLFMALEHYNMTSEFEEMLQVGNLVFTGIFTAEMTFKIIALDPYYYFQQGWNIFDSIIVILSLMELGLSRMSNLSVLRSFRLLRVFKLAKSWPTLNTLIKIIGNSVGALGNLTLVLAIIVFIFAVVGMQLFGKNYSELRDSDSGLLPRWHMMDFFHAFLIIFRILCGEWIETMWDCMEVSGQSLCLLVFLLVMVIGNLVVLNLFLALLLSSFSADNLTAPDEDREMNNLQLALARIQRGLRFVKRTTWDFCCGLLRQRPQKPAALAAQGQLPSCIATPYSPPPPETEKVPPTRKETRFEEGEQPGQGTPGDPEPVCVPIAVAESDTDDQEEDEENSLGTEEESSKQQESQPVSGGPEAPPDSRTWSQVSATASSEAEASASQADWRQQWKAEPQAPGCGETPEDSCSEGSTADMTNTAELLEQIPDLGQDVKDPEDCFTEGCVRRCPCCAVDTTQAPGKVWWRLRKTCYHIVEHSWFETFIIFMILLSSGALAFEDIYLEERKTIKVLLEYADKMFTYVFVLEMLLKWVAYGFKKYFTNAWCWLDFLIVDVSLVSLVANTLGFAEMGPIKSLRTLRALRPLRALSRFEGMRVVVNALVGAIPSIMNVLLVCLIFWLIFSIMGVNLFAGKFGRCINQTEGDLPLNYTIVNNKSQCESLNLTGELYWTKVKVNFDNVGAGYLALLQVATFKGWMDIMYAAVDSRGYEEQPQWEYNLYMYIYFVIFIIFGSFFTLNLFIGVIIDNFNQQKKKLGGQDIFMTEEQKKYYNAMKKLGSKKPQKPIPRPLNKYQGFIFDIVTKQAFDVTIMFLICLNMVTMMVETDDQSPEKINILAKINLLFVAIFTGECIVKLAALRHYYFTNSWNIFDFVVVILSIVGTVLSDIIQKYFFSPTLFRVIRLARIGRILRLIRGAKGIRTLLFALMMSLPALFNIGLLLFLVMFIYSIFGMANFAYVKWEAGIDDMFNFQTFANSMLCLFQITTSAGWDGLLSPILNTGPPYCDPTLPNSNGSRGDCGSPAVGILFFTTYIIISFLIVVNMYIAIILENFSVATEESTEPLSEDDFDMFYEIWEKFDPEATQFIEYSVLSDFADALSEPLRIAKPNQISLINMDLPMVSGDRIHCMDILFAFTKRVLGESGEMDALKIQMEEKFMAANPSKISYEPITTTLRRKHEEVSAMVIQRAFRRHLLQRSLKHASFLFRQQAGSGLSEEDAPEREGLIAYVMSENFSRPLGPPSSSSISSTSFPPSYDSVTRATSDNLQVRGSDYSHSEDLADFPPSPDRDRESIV", "test": "Effects on action potential in a mammalian cell, sodium channel block", "format": "cell-based", "excerpt": "Voltage-gated sodium channels are responsible for the initial phase of the action potential, which is a wave of electrical depolarisation usually initiated at the soma of the neuron and propagated along the nerve axon to the terminals. At the terminals, the action potential triggers the influx of calcium and the release of neurotransmitter. The voltage-gated sodium channel family is made up of four brain specific subtypes, Nav1.1, 1.2, 1.3 and 1.6; as well as Nav1.4, which is found on skeletal muscle; Nav1.5, which is found on cardiac muscle; and Nav1.7, 1.8, 1.9, are found predominantly on sensory neurons.\nThe effects of ICI-735 on action potential in a mammalian cell was tested. Briefly, it was observed that ICI-735 was able to block Nav1.5."}, "[1]": {"system": "BALB/c mice, Af-induced allergic airway inflammation", "test": "Bronchoalveolar lavage (BAL) analysis for cell count and cytokines in the asthma model", "format": "in vivo, mouse", "description": "Lungs from the tested animals in Example 2 were lavaged with either a small volume (1 ml) of sterile PBS or a large volume (5 ml) of sterile saline, and total and differential cell counts were performed as described previously (Haczku et al., 1999 Am. J. Respir. Crit. Care Med. 159: 1638-1643; Haczku et al., 2000 Am. J. Respir. Crit. Care Med. 161: 952-960).\nWith respect to the murine model of allergen induced AHR, BALB/c mice were sensitized and challenged via intranasal instillation of Aspergillus fumigatus (Af). Two hours prior to each intranasal challenge, cohorts of five mice were administered intra peritonially (i.p.) with ICI-735 (1 mg/ml), dexamethasone (10 mg/ml). Four hours after the last allergen challenge, airway function was assessed by flexivent. Differential cytokine and immune cell abundance were also accessed in BAL fluid."}, "hCav1.2": {"biological_target": "hCav1.2 (Homo sapiens, UniProt Q13936)", "test": "Cardiac ion channels expressed in mammalian cells", "format": "cell-based", "conditions": "0.1 μM, 1 μm, 10 μm, and 100 μm", "excerpt": "Opening of voltage-gated calcium channels results in influx of calcium ions into the cell. This influx of calcium plays an important role in excitation-contraction coupling in cardiac and skeletal muscle fibers. The reversal potential for calcium is extremely positive, so calcium current is almost always inward, resulting in an action potential plateau in many excitable cells. These channels are the target of calcium channel blocker subtype of antihypertensive drugs. The alpha-1 subunit forms the ion conducting pore, with several modulating auxiliary subunits. Major subtypes of voltage-gated calcium channels include L-type (Cav1.1, Cav1.2, Cav1.3, Cav1.4), T-type (Cav3.1, Cav3.2, Cav3.3), N-type (Cav2.2), P-type (Cav2.1), and R-type (Cav2.3).\nMammalian cells were treated with ICI-735 (0.1 μM, 1 μm, 10 μm, and 100 μm) to determine whether ICI-735 blocked the expression of cardiac ion channels. It was observed that ICI-735 was able to block the expression of both hERG and hCav1.2). Without wishing to be bound by any particular theory, it is believed that the blocks in hERG and calcium channels may cancel one another physiologically, but sodium channel effect may lead to changes in membrane potential."}, "hERG": {"biological_target": "T1, hERG (Homo sapiens, UniProt Q12809)", "T1 construct": "expressed in transfected cells", "T1 sequence (Q12809 whole entry)": "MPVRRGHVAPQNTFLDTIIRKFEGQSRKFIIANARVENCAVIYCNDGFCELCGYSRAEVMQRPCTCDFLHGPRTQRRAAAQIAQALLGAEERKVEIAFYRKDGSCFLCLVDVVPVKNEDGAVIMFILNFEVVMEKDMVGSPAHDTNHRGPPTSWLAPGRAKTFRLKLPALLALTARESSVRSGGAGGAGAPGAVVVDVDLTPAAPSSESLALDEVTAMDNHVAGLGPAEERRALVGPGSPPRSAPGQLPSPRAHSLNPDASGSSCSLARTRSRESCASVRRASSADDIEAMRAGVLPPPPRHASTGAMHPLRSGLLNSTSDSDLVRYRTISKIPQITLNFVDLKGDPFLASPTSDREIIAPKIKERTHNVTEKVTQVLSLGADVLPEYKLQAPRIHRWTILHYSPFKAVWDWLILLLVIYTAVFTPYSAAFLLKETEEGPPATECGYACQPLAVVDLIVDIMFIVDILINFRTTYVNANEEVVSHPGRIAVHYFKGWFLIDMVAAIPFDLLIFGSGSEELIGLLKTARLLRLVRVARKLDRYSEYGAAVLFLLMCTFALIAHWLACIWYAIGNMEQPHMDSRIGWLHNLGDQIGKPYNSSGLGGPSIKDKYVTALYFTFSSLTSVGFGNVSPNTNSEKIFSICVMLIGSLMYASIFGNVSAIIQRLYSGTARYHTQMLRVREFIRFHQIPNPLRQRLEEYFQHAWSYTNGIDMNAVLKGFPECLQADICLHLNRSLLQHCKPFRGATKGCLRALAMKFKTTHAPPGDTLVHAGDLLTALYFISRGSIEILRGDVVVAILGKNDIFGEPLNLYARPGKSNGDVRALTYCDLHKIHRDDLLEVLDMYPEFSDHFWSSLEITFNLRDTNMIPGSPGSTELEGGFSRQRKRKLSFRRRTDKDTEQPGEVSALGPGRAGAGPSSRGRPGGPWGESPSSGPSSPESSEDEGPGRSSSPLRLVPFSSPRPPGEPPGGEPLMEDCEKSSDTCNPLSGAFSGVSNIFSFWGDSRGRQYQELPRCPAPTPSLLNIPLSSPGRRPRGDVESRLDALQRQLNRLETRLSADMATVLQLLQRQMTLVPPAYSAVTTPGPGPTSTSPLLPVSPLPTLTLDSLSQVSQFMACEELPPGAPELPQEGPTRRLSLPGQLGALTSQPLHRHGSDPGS", "test": "Cardiac ion channels expressed in mammalian cells", "format": "cell-based", "conditions": "0.1 μM, 1 μm, 10 μm, and 100 μm", "excerpt": "Voltage-gated K channels are activated by membrane depolarization. As with all voltage-gated ion channels, depolarization results in a conformational change in the S4 voltage sensor which contains positively charged amino acids. This conformational change triggers additional conformational changes leading to channel opening. Upon depolarization, these channels open, allowing the efflux of potassium from the cell, down its electrochemical gradient. They function in the heart and brain to repolarize the membrane potential and to terminate an action potential. A-type potassium currents are quickly inactivating potassium currents (eg, Kv4.2 and Kv1.4) and are important in the initial notch of repolarization in cardiac cells and the fast-spiking behavior of some neurons. Slowly inactivating channels provide more prolonged repolarization effects (eg, Kv1.5, Kv3.1, Kv2.1). hERG (human Ether-a-go-go Related Gene) channels are unusual voltage-gated potassium channels in that they are inwardly rectifying due to accelerated inactivation at positive voltages. hERG channels play a role in long-QT syndrome and block of hERG can precipitate torsades de pointe which may lead to fatal ventricular fibrillation. Screening of drugs for effects on hERG is desirable in investigational compounds. […]"}, "human small airway": {"system": "human small airway", "test": "Human precision-cut lung slices (PCLS), small airway contraction", "conditions": "for CCh-induced bronchoconstriction after pretreatment of lung slices: C-027 10^−5 M, formoterol 0.3 nM", "description": "Human precision-cut lung slices (PCLS) permit evaluation of pharmacological responses of novel drug candidates applied directly to their target tissue.\nHuman precision-cut lung slices (PCLS, 250 μm thick) containing a small airway were contracted to carbachol, histamine and passively sensitization to induce airway closure±pre-incubation with ICI-735 (10 μM; 2 hours); FIG. 13. For example, human lung slices containing a small airway were incubated overnight with either negative control IgG (4 μg/mL) or positive control IgE (4 μg/mL). The slices were tested as follows: 1) IgG+anti-IgE; 2) IgE+anti-IgE; 3) IgE+Dexamethasone (1 μM)+anti-IgE; and 4) IgE+ICI-735 (10 μM) +anti-IgE. Dexamethasone and ICI-735 were pre-incubated 2 hours prior to anti-IgE; anti-IgE is used to crosslink antibodies and induce mast cell degranulation, which is believed to release histamine and cause airway contract. […]\nHuman lung tissue contains multiple cell types, including mast cells, that localize in the region of airway smooth muscle, and that increase in number in individuals with asthma. Cross-linking of Fcε;R1 receptors on surfaces of mast cells leads to release of granules that contain smooth muscle contractile agonists, including histamine and leukotrienes.\nTo test C-027 as a blocker of histamine-induced bronchoconstriction, lung slices were incubated for 2 hours with C-027, and small airway contraction was evaluated after addition of increasing concentrations of histamine."}, "RPMI 8226": {"system": "RPMI 8226", "test": "Inhibition of proliferation of RPMI 8226 cells", "format": "cell-based, human", "conditions": "RPMI cells in vitro", "excerpt": "The next set of experiments was designed to assess compounds that have low levels of brain penetration for the ability of the test compounds to inhibit cellular proliferation. An exemplary in vitro assay is to screen for the ability of the test compounds to inhibit proliferation of the B-cell neoplastic cell line RPMI 8226 (a plasmacytoma derived from a multiple myeloma patient (Matsuoka, et al., 1967, Proc. Soc. Exp. Biol. Med. 125: 1246-1250). However other cell line can be used such as, U266 (established from an IgE-secreting myeloma patient (Nilsson, et al., 1970, Clin. Exp. Immunol., 7: 477-489) and ARH77 (an EBV transformed plasma cell leukemia (Burk, et al., 1978, Cancer Res. 38: 2508-2513).\nFIG. 1 is a graph depicting the effects on the test compounds on RPMI cell viability."}}, "note": "Entries after “also recorded” stand apart in the source; their conditions may differ."}
{"smiles": "NCC(=O)NCCN1CCN(CCCN2c3ccccc3Sc3ccc(C(F)(F)F)cc32)CC1", "note": "[ICI-735]", "values": [{"measurement": "IC50", "setting": "Nav1.5", "result": 8.33, "unit": "µM"}, {"measurement": "block of Nav1.5", "setting": "Nav1.5", "result": "able to block"}, {"measurement": "cytokine production in BAL", "setting": "[1]; Af-sensitized mice", "result": "little effect; also recorded: no significant effects"}, {"measurement": "total number of cells / immune cell infiltration in BAL", "setting": "[1]; asthmatic animals, treated vs untreated", "result": "not a significant difference; also recorded: little effect; also recorded: no significant effects"}, {"measurement": "block of hCav1.2", "setting": "hCav1.2", "result": "able to block"}, {"measurement": "block of hERG", "setting": "hERG", "result": "able to block"}, {"measurement": "histamine response at the highest concentration tested", "setting": "human small airway; 10 μM", "result": "does not completely prevent"}, {"measurement": "histamine-induced contraction / bronchoconstriction", "setting": "human small airway; 2 hours pre-incubation, increasing concentrations of histamine", "result": "antagonize; also recorded: blocks; also recorded: prevented"}, {"measurement": "CCh-induced bronchoconstriction after pretreatment of lung slices", "setting": "human small airway", "result": "antagonize; also recorded: prevents and reverses bronchoconstriction"}, {"measurement": "CCh-induced bronchoconstriction after pretreatment of lung slices", "setting": "human small airway; listed as C-027", "result": "blocks"}, {"measurement": "airway contraction to IgE/anti-IgE (passive sensitization, mast cell degranulation)", "setting": "human small airway; ICI-735 10 μM, dexamethasone 1 μM, pre-incubated 2 hours", "result": "antagonize; also recorded: attenuation; also recorded: blocks bronchoconstriction"}, {"measurement": "IL-13-induced airway hyper-responsiveness to CCh", "setting": "human small airway; IL-13 50 ng/mL overnight, compound one hour prior", "result": "diminishes"}, {"measurement": "relaxation of maximally contracted airway smooth muscle", "setting": "human small airway; in the presence of 30 μM CCh, isoproterenol 10 μM", "result": "induces relaxation"}, {"measurement": "ability to inhibit proliferation of RPMI cells", "setting": "RPMI 8226", "result": "did not inhibit proliferation of RPMI cells in vitro as well as some other compounds; also recorded: effective, but not as effective"}]}
